{"source": "paper PMC6013495", "about": "“Development of a Novel Backbone Cyclic Peptide Inhibitor of the Innate Immune TLR/IL1R Signaling Protein MyD88” (Scientific Reports, 2018)", "key": {"[1]": {"target": "T1, human MyD88 TIR domain (aa 150–296) (Homo sapiens, UniProt Q99836)", "T1 construct": "human MyD88 TIR domain residues 150–296; His tag; made in house; host or cells: E. coli BL21 C43 (DE3)", "T1 sequence (Q99836 150-296)": "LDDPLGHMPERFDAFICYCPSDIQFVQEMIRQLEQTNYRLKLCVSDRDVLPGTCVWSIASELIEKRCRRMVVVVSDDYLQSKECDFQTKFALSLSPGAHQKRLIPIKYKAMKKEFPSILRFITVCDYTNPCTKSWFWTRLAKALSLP", "assay": "Competitive binding assay, Biotin-MyDI on recombinant SUMO-MyD88-TIR", "settings": "SUMO-MyD88-TIR 8 µg/ml coated, Streptavidin-HRP read-out", "source_text": "A synthetic DNA fragment corresponding to the cDNA encoding human MyD88 TIR domain residues 150–296 with BamH/Xhol restriction enzymes was from IDT (Integrated DNA technologies, IA, USA). DNA was amplified with the Ready-mix PCR kit (Sigma), and ligated (New England BioLabs, MA, USA) with the restriction enzymes BamH and Xhol (TaKaRa, Kusatsu, Shiga Prefecture, Japan) to pETM-11 SUMO3GFP fusion vector for protein expression in E. coli, a gift from the EMBL protein expression and purification core facility. Plasmids were gel purified with PureLink Quick Gel Extraction kit (Invitrogen, San Diego, CA, USA), sequence verified, and transformed to (C2987) NEB Dh5a competent cells (New England BioLabs) and amplified with a QIAGEN plasmid midiprep kit. The recombinant fusion protein- SUMO-MyD88-TIR was expressed in E. coli BL21 C43 (DE3) cells (Lucigen, WI, USA). E. coli BL21 C43(DE3) were grown in 2xYT medium containing 1% glucose, […] MgSO4 and 20xNPS (100 mM PO4, 25mMSO4, 50 mM NH4. 100 mM Na, 50 mM K) up to mid-log phase (O.D-0.6) in 37 °C and then were grown o.n at 25 °C with 0.4 mM IPTG (Sigma). […]\nThe recombinant SUMO-MyD88-TIR protein (8 µg/ml) was attached to polystyrene microtiter 96 well plates (Nunc, Roskilde, Denmark) at 4 °C o.n. […] After 5 min, 2 N sulfuric acid stop solution was added and absorbance was read at 450 nm in an Infinite 200 Pro plate reader (Tecan). […]"}, "[2]": {"target": "T2, SUMO protein fused to eGFP (Homo sapiens, UniProt P55854)", "T2 construct": "His tag; made in house; host or cells: E. coli BL21 C43 (DE3)", "assay": "Binding of Biotin-MyDI to control SUMO-eGFP fusion protein", "settings": "SUMO-eGFP coated, Streptavidin-HRP read-out"}}, "data": [{"substance": "Biotin-MyDI: Biotinylated linear BB loop peptide RDVLPGT, from Bio Basic Inc.", "values": [{"measurement": "binding to the MyD88 TIR domain", "setting": "[1]", "result": "bound the TIR domain in a concentration dependent manner"}, {"measurement": "binding to control fusion protein", "setting": "[2]", "result": "did not bind at any concentration"}]}]}
